Measurements published in patent US20250034136A1 (Nimbus Wadjet, Inc., priority 2023, published 2025).
pEC50, pIC50: −log10 of the molar value. Where two headings read alike, the source gives them in different places.

Legend:
[1] = target: WRN (BV08), human Werner helicase (Uniprot Q14191, amino acids 517-1235 with L1074F point mutation) (Homo sapiens (Human), UniProt Q14191, L1074F); test: WRN (BV08) ADP-Glo assay; assay type: biochemical; settings: class symbols A-E, read-out: ADP-Glo_hWRN_IC50
Sequence of WRN (BV08), human Werner helicase (Uniprot Q14191, amino acids 517-1235 with L1074F point mutation) (Q14191 other isoform, or with tags, fused parts or gaps L1074F (already in the parent)): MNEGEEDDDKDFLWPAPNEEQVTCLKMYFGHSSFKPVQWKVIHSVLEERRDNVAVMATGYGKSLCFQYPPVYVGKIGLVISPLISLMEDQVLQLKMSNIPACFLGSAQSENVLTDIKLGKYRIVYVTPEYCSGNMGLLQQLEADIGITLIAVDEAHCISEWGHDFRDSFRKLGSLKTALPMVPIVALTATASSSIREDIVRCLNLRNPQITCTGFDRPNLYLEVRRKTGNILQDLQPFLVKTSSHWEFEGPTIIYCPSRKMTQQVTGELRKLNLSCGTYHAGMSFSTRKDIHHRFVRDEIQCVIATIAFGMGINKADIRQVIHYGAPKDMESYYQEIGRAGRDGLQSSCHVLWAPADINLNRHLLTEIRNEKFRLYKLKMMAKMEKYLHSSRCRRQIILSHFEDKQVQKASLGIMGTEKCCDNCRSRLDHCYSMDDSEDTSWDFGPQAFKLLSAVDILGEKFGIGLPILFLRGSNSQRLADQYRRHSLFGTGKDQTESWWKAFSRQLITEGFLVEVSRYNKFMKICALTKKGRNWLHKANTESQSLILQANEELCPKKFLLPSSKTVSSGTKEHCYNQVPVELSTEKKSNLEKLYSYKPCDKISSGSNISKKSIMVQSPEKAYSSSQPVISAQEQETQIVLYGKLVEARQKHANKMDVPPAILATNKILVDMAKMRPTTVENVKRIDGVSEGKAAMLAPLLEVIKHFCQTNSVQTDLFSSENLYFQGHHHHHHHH

[2] = system: p21 induction in HCT116 cells; test: p21 induction in HCT116 cells; assay type: cell-based; settings: Homo sapiens, HCT-116, 24 h, read-out: P21_EC50
Summary of the method: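 HCT116 cells, 2,000/well, treated 24 h at 37 °C with 11-point compound dilutions in duplicate. Fixed, then immunostained for p21 and GAPDH and read by near-IR imaging at 800/700 nm. Normalized to DMSO (low) and reference WRN inhibitor (high) controls; EC50 from non-linear regression.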

[3] = HCT116 cells, 24 h compound incubation

| SMILES | pIC50 [1] | pEC50 [2, 3] | pEC50 [2] |
| --- | --- | --- | --- |
| CCc1c(N2CCN(C(=O)c3ncnc(C)c3O)CC2)c(=O)c2nc(N(C)C)cnc2n1CC(=O)NC12CC(C(F)(F)F)(C1)C2 [I-108, 2-(2-(dimethylamino)-6-ethyl-7-(4-(5-hydroxy-6-methylpyrimidine-4-carbonyl)piperazin-1-yl)-8-oxopyrido[2,3-b]pyrazin-5(8H)-yl)-N-(3-(trifluoromethyl)bicyclo[1.1.1]pentan-1-yl)acetamide] | 6.30 to 7.00 | < 5.30 |  |
| CCc1c(N2CCN(C(=O)c3ncnc(C)c3O)CC2)c(=O)c2nc(N(C)C)c(F)cc2n1CC(=O)Nc1ccc(C(F)(F)F)cc1Cl [I-109, N-(2-chloro-4-(trifluoromethyl)phenyl)-2-(6-(dimethylamino)-2-ethyl-7-fluoro-3-(4-(5-hydroxy-6-methylpyrimidine-4-carbonyl)piperazin-1-yl)-4-oxo-1,5-naphthyridin-1(4H)-yl)acetamide] | 7.30 to 8.30 |  | 5.70 to 6.30 |
| CCc1c(N2CCN(C(=O)c3ncnc(C)c3O)[C@H]3CC[C@@H]32)c(=O)c2nc(N(C)C)cnc2n1CC(=O)NC12CC(C(F)(F)F)(C1)C2 [I-110, 2-(2-(dimethylamino)-6-ethyl-7-((1S,6S)-5-(5-hydroxy-6-methylpyrimidine-4-carbonyl)-2,5-diazabicyclo[4.2.0]octan-2-yl)-8-oxopyrido[2,3-b]pyrazin-5(8H)-yl)-N-(3-(trifluoromethyl)bicyclo[1.1.1]pentan-1-yl)acetamide] | 6.30 to 7.00 | < 5.30 |  |
| CCc1c(N2CCN(C(=O)c3ncnc(C)c3O)CC2)c(=O)c2nc3sc(C)cc3nc2n1CC(=O)Nc1ccc(C(F)(F)F)cc1Cl [I-113, N-(2-chloro-4-(trifluoromethyl)phenyl)-2-(6-ethyl-7-(4-(5-hydroxy-6-methylpyrimidine-4-carbonyl)piperazin-1-yl)-2-methyl-8-oxopyrido[2,3-b]thieno[2,3-e]pyrazin-5(8H)-yl)acetamide] | ≥ 8.30 | > 6.30 |  |
| CCc1c(N2CCN(C(=O)c3ncnc(C)c3O)CC2)c(=O)c2nc3cc(C)sc3nc2n1CC(=O)NC12CC(C(F)(F)F)(C1)C2 [I-115, 2-(7-ethyl-6-(4-(5-hydroxy-6-methylpyrimidine-4-carbonyl)piperazin-1-yl)-2-methyl-5-oxopyrido[2,3-b]thieno[3,2-e]pyrazin-8(5H)-yl)-N-(3-(trifluoromethyl)bicyclo[1.1.1]pentan-1-yl)acetamide] | 7.30 to 8.30 | < 5.30 |  |
| CCc1c(N2CCN(C(=O)c3ncnc(C)c3O)CC2)c(=O)c2nc3c(nc2n1CC(=O)Nc1ccc(C(F)(F)F)cc1Cl)CCN3C [I-116, N-(2-chloro-4-(trifluoromethyl)phenyl)-2-(6-ethyl-7-(4-(5-hydroxy-6-methylpyrimidine-4-carbonyl)piperazin-1-yl)-1-methyl-8-oxo-1,2,3,8-tetrahydro-5H-pyrido[2,3-b]pyrrolo[2,3-e]pyrazin-5-yl)acetamide] | 7.30 to 8.30 | 5.70 to 6.30 |  |
| CCc1c(N2CCN(C(=O)c3ncnc(C)c3O)CC2)c(=O)c2nc(C=C3CC(OC)C3)cnc2n1CC(=O)Nc1ccc(C(F)(F)F)cc1Cl (centres unmarked) [I-117, N-(2-chloro-4-(trifluoromethyl)phenyl)-2-(6-ethyl-7-(4-(5-hydroxy-6-methylpyrimidine-4-carbonyl)piperazin-1-yl)-2-((3-methoxycyclobutylidene)methyl)-8-oxopyrido[2,3-b]pyrazin-5(8H)-yl)acetamide] | 7.30 to 8.30 | > 6.30 |  |
| CCc1c(N2CCN(C(=O)c3ncnc(C)c3O)C[C@@H]2C)c(=O)c2nc(N(C)C)nnc2n1CC(=O)Nc1ccc(C(F)(F)F)cc1Cl [I-118, (S)—N-(2-chloro-4-(trifluoromethyl)phenyl)-2-(3-(dimethylamino)-7-ethyl-6-(4-(5-hydroxy-6-methylpyrimidine-4-carbonyl)-2-methylpiperazin-1-yl)-5-oxopyrido[3,2-e] [1,2,4]triazin-8(5H)-yl)acetamide] | 7.30 to 8.30 | 5.70 to 6.30 |  |
| CCc1c(N2CCN(C(=O)c3ncnc(C)c3O)[C@H]3CC[C@@H]32)c(=O)c2nc(N(C)C)cnc2n1CC(=O)Nc1ccc(OC(F)(F)F)cc1 [I-120, 2-[2-(dimethylamino)-6-ethyl-7-[(1S,6S)-5-(5-hydroxy-6-methylpyrimidine-4-carbonyl)-2,5-diazabicyclo[4.2.0]octan-2-yl]-8-oxo-5H,8H-pyrido[2,3-b]pyrazin-5-yl]-N-[4-(trifluoromethoxy)phenyl]acetamide] | 7.30 to 8.30 | > 6.30 |  |

The next lines start with results.

| pIC50 [1] | pEC50 [2, 3] | SMILES | pEC50 [2] |
| --- | --- | --- | --- |
| 7.30 to 8.30 | > 6.30 | CCc1c(N2CCN(C(=O)c3ncnc(C)c3O)[C@H]3CC[C@@H]32)c(=O)c2nc(N3CCCC3)cnc2n1CC(=O)Nc1ccc(C(F)(F)F)cc1Cl [I-105, N-(2-chloro-4-(trifluoromethyl)phenyl)-2-(6-ethyl-7-((1S,6S)-5-(5-hydroxy-6-methylpyrimidine-4-carbonyl)-2,5-diazabicyclo[4.2.0]octan-2-yl)-8-oxo-2-(pyrrolidin-1-yl)pyrido[2,3-b]pyrazin-5(8H)-yl)acetamide] |  |
| ≥ 8.30 | > 6.30 | CCc1c(N2CCN(C(=O)c3ncnc(C)c3O)[C@H]3CC[C@@H]32)c(=O)c2nc(N(C)C)c(C)nc2n1CC(=O)Nc1ccc(C(F)(F)F)cc1Cl [I-107, N-(2-chloro-4-(trifluoromethyl)phenyl)-2-(2-(dimethylamino)-6-ethyl-7-((1S,6S)-5-(5-hydroxy-6-methylpyrimidine-4-carbonyl)-2,5-diazabicyclo[4.2.0]octan-2-yl)-3-methyl-8-oxopyrido[2,3-b]pyrazin-5(8H)-yl)acetamide] |  |
| ≥ 8.30 | > 6.30 | CCc1c(N2CCN(C(=O)c3ncnc(C)c3O)[C@H]3CC[C@@H]32)c(=O)c2nc(C=C(C)C)nnc2n1CC(=O)Nc1ccc(C(F)(F)F)cc1Cl [I-111, N-(2-chloro-4-(trifluoromethyl)phenyl)-2-(7-ethyl-6-((1S,6S)-5-(5-hydroxy-6-methylpyrimidine-4-carbonyl)-2,5-diazabicyclo[4.2.0]octan-2-yl)-3-(2-methylprop-1-en-1-yl)-5-oxopyrido[3,2-e] [1,2,4]triazin-8(5H)-yl)acetamide] |  |
| 7.30 to 8.30 | > 6.30 | CCc1c(N2CCN(C(=O)c3ncnc(C)c3O)CC2)c(=O)c2nc3cc(C)oc3nc2n1CC(=O)Nc1ccc(C(F)(F)F)cc1Cl [I-112, N-(2-chloro-4-(trifluoromethyl)phenyl)-2-(7-ethyl-6-(4-(5-hydroxy-6-methylpyrimidine-4-carbonyl)piperazin-1-yl)-2-methyl-5-oxofuro[2,3-b]pyrido[3,2-e]pyrazin-8(5H)-yl)acetamide] |  |
| 7.30 to 8.30 | > 6.30 | CCc1c(N2CCN(C(=O)c3ncnc(C)c3O)[C@H]3CC[C@@H]32)c(=O)c2nc3nc(C)sc3nc2n1CC(=O)Nc1ccc(C(F)(F)F)cc1Cl [I-114, N-(2-chloro-4-(trifluoromethyl)phenyl)-2-(6-ethyl-7-((1S,6S)-5-(5-hydroxy-6-methylpyrimidine-4-carbonyl)-2,5-diazabicyclo[4.2.0]octan-2-yl)-2-methyl-8-oxopyrido[2,3-b]thiazolo[4,5-e]pyrazin-5(8H)-yl)acetamide] |  |
| 7.30 to 8.30 | > 6.30 | CCc1c(N2CCN(C(=O)c3ncnc(C)c3O)[C@H]3CC[C@@H]32)c(=O)c2nc(N(C)C)cnc2n1CC(=O)Nc1ccc(C(F)(F)F)cc1F [I-121, 2-(2-(dimethylamino)-6-ethyl-7-((1S,6S)-5-(5-hydroxy-6-methylpyrimidine-4-carbonyl)-2,5-diazabicyclo[4.2.0]octan-2-yl)-8-oxopyrido[2,3-b]pyrazin-5(8H)-yl)-N-(2-fluoro-4-(trifluoromethyl)phenyl)acetamide] |  |
| 7.30 to 8.30 | > 6.30 | CCc1c(N2CCN(C(=O)c3ncnc(C)c3O)[C@H]3CCC[C@@H]32)c(=O)c2nc3cc(C)oc3nc2n1CC(=O)Nc1ccc(C(F)(F)F)cc1Cl [I-123, 2-{11-[(4aS,7aS)-4-(5-hydroxy-6-methylpyrimidine-4-carbonyl)-octahydro-1H-cyclopenta[b]pyrazin-1-yl]-12-ethyl-5-methyl-10-oxo-4-oxa-2,8,13-triazatricyclo[7.4.0.0^{3,7}]trideca-1,3(7),5,8,11-pentaen-13-yl}-N-[2-chloro-4-(trifluoromethyl)phenyl]acetamide] |  |
| 7.30 to 8.30 | > 6.30 | CCc1c(N2CCN(C(=O)c3ncnc(C)c3O)[C@H]3CC[C@@H]32)c(=O)c2cc(N(C)C)cnc2n1CC(=O)Nc1ccc(C(F)(F)F)cc1Cl [I-124, N-[2-chloro-4-(trifluoromethyl)phenyl]-2-[6-(dimethylamino)-2-ethyl-3-[(1S,6S)-5-(5-hydroxy-6-methylpyrimidine-4-carbonyl)-2,5-diazabicyclo[4.2.0]octan-2-yl]-4-oxo-1,4-dihydro-1,8-naphthyridin-1-yl]acetamide] |  |
| ≥ 8.30 | > 6.30 | CCc1c(N2CCN(C(=O)c3ncnc(C)c3O)[C@H]3CC[C@@H]32)c(=O)c2nc(C3CC3)cnc2n1CC(=O)Nc1ccc(C(F)(F)F)cc1F [I-125, 2-(2-cyclopropyl-6-ethyl-7-((1S,6S)-5-(5-hydroxy-6-methylpyrimidine-4-carbonyl)-2,5-diazabicyclo[4.2.0]octan-2-yl)-8-oxopyrido[2,3-b]pyrazin-5(8H)-yl)-N-(2-fluoro-4-(trifluoromethyl)phenyl)acetamide] |  |
| 7.30 to 8.30 | > 6.30 | CCc1c(N2CCN(C(=O)c3ncnc(C)c3O)[C@H]3CC[C@@H]32)c(=O)c2nc(C)c(C)nc2n1CC(=O)Nc1ccc(C(F)(F)F)cc1Cl [I-126, N-(2-chloro-4-(trifluoromethyl)phenyl)-2-(6-ethyl-7-((1S,6S)-5-(5-hydroxy-6-methylpyrimidine-4-carbonyl)-2,5-diazabicyclo[4.2.0]octan-2-yl)-2,3-dimethyl-8-oxopyrido[2,3-b]pyrazin-5(8H)-yl)acetamide] |  |
